Test results taken from US20200031778A1, “NOVEL 5-SUBSTITUTED IMIDAZOLYLMETHYL DERIVATIVES” (Bayer CropScience Aktiengesellschaft, priority 2016, published 2020).

Assays:
Septoria tritici = experiment: Example IX-B: in vivo preventive test on Septoria tritici (leaf spot on wheat); conditions: Zymoseptoria tritici, 576 h; compounds of formula IX; 500 ppm of active ingredient; wheat plants, preventive spray; evaluated 24 days after inoculation; read-out: efficacy
Experimental: Example IX-B: In Vivo Preventive Test on Septoria Tritici (Leaf Spot on Wheat)
(§1) The active ingredients are made soluble and homogenized in a mixture of Dimethyl sulfoxide/Acetone/Tween® 80 and then diluted in water to the desired concentration.
(§2) The young plants of wheat are treated by spraying the active ingredient prepared as described above. Control plants are treated only with an aqueous solution of Acetone/Dimethyl sulfoxide/Tween® 80.
After 24 hours, the plants are contaminated by spraying the leaves with an aqueous suspension of Septoria tritici spores. The contaminated wheat plants are incubated for 72 hours at 18° C. and at 100% relative humidity and then for 21 days at 20° C. and at 90% relative humidity.
The test is evaluated 24 days after the inoculation. 0% means an efficacy which corresponds to that of the control plants while an efficacy of 100% means that no disease is observed.

[1] = Log P by HPLC on reversed phase columns (EEC directive 79/831 Annex V.A8; methods [a], [b], [c]); format: physicochemical; conditions: for chromatographic logP: reversed phase HPLC column, method [a]: LC-UV, acidic range, 0.1% formic acid in water and acetonitrile as eluent (linear gradient from 10% to 95% acetonitrile)
Method in brief: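 Log P derived from retention times, interpolated linearly between bracketing straight-chain alkan-2-ones (3–16 carbons) of known Log P. Eluents ran acetonitrile 10% to 95% against water with 0.1% formic acid ([a], acidic), 0.001 M ammonium acetate ([b], neutral) or 0.1% phosphoric acid ([c], acidic); UV read-out.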

Puccinia recondita = experiment: Example IX-A: in vivo preventive test on Puccinia recondita (brown rust on wheat); conditions: 264 h, compounds of formula IX, 500 ppm of active ingredient, wheat plants, preventive spray, evaluated 11 days after inoculation, read-out: efficacy
Experimental: Example IX-A: In Vivo Preventive Test on Puccinia Recondita (Brown Rust on Wheat)
as §1, §2
After 24 hours, the plants are contaminated by spraying the leaves with an aqueous suspension of Puccinia recondita spores. The contaminated wheat plants are incubated for 24 hours at 20° C. and at 100% relative humidity and then for 10 days at 20° C. and at 70-80% relative humidity.
The test is evaluated 11 days after the inoculation. 0% means an efficacy which corresponds to that of the control plants while an efficacy of 100% means that no disease is observed.

Sphaerotheca fuliginea = experiment: Example IX-C: in vivo preventive test on Sphaerotheca fuliginea (powdery mildew on cucurbits); conditions: Podosphaera fuliginea, 360 h; compounds of formula IX; 500 ppm of active ingredient; gherkin plants, preventive spray; evaluated 15 days after inoculation; read-out: efficacy
Experimental: Example IX-C: In Vivo Preventive Test on Sphaerotheca Fuliginea (Powdery Mildew on Cucurbits)
as §1
The young plants of gherkin are treated by spraying the active ingredient prepared as described above. Control plants are treated only with an aqueous solution of Acetone/Dimethyl sulfoxide/Tween® 80.
After 24 hours, the plants are contaminated by spraying the leaves with an aqueous suspension of Sphaerotheca fuliginea spores. The contaminated gherkin plants are incubated for 72 hours at 18° C. and at 100% relative humidity and then for 12 days at 20° C. and at 70-80% relative humidity.
The test is evaluated 15 days after the inoculation. 0% means an efficacy which corresponds to that of the control plants while an efficacy of 100% means that no disease is observed.

Compound	chromatographic logP [1]	LogP [1]	pest or weed control at 500 ppm (Septoria tritici)	pest or weed control at 500 ppm (Puccinia recondita)	pest or weed control at 500 ppm (Sphaerotheca fuliginea)
O=C(Cn1cncc1Br)c1ccc(Oc2ccc(C(F)(F)F)cc2)c(Cl)c1 [IX-03]	3.23		90 to 100%		
N#Cc1cncn1CC(=O)c1ccc(Oc2ccc(C(F)F)cc2)nc1C(F)(F)F [IX-132]	2.8		90 to 100%	90 to 100%	90 to 100%
CC(=O)c1cncn1CC(=O)c1cnc(Oc2ccc(C(F)F)cc2)cc1C(F)(F)F [IX-103]	2.71		90 to 100%		90 to 100%
N#Cc1cncn1CC(=O)c1ccc(Oc2c(F)cc(Cl)cc2F)nc1C(F)(F)F [IX-124]	3.28		90 to 100%		
N#Cc1cncn1CC(=O)c1ccc(Oc2ccc(C(F)(F)F)nc2)nc1C(F)(F)F [IX-131]	2.92		90 to 100%	80 to 89%	90 to 100%
O=C(Cn1cncc1Cl)c1ccc(Oc2ccc(Cl)nc2)cc1Cl [IX-44]	2.2		90 to 100%	80 to 89%	90 to 100%
O=C(Cn1cncc1Cl)c1ccc(Oc2ccc(C(F)(F)F)cc2)c(Br)c1 [IX-16]	3.29		90 to 100%		
O=C(Cn1cncc1Cl)c1ccc(Oc2ccc(Cl)nc2)cc1C(F)(F)F [IX-28]	2.45		90 to 100%	80 to 89%	90 to 100%
O=C(Cn1cncc1Br)c1ccc(Oc2ccc(Cl)cc2)cc1C(F)(F)F [IX-41]	3.35		90 to 100%	80 to 89%	
O=C(Cn1cncc1Br)c1ccc(Oc2ccc(Cl)cn2)cc1Cl [IX-55]	2.52		90 to 100%	80 to 89%	90 to 100%
O=C(Cn1cncc1Br)c1ccc(Oc2ccc(Cl)nc2)cc1Cl [IX-56]	2.25		90 to 100%	80 to 89%	
O=C(Cn1cncc1Cl)c1ccc(F)cc1Br [IX-35]	1.57				90 to 100%
O=C(Cn1cncc1Br)c1ccc(Oc2ccc(C(F)(F)F)cc2)cc1C(F)(F)F [IX-51]	3.51		90 to 100%	80 to 89%	90 to 100%
O=C(Cn1cncc1Cl)c1ccc(Oc2ccc(Cl)cc2)nc1C(F)(F)F [IX-52]	3		90 to 100%	90 to 100%	70 to 79%
N#Cc1cncn1CC(=O)c1ccc(Oc2ccc(Br)nc2)nc1C(F)(F)F [IX-144]	2.68		90 to 100%	70 to 79%	90 to 100%
O=C(Cn1cncc1Cl)c1ccc(Oc2ccc(Cl)cc2)cc1 [IX-21]	2.63		90 to 100%	80 to 89%	90 to 100%
O=C(Cn1cncc1Br)c1ccc(Oc2ccc(Cl)cc2)cc1 [IX-22]	2.63		90 to 100%	80 to 89%	90 to 100%

Compound	chromatographic logP [1]	LogP [1]	pest or weed control at 500 ppm (Septoria tritici)	pest or weed control at 500 ppm (Puccinia recondita)	pest or weed control at 500 ppm (Sphaerotheca fuliginea)
COc1cc(F)ccc1C(=O)Cn1cncc1Cl [IX-11]	1.34		90 to 100%		
O=C(Cn1cncc1C(F)(F)F)c1ccc(Oc2ccc(I)cc2)cc1F [IX-49]	4.16		90 to 100%	80 to 89%	
CC(=O)c1cncn1CC(=O)c1ccc(Oc2ccc(Br)cc2)nc1C(F)(F)F [IX-122]	3.31		90 to 100%		90 to 100%
O=C(Cn1cncc1F)c1ccc(Oc2ccc(Br)nc2)nc1C(F)(F)F [IX-142]	2.14		90 to 100%		90 to 100%
COc1ccc(Oc2ccc(C(=O)Cn3cncc3Cl)c(C)n2)c(Cl)c1 [IX-25]	2.33		90 to 100%		
CC(=O)c1cncn1CC(=O)c1ccc(Oc2ccc(C(F)(F)F)nc2)nc1C(F)(F)F [IX-133]	2.6		90 to 100%		
O=C(Cn1cncc1Cl)c1ncc(Oc2ccccc2)cc1Cl [IX-01]	2.44		80 to 89%		
N#Cc1cncn1CC(O)(c1cc(Cl)ccc1Cl)C1(Cl)CC1 (centres unmarked) [I-336]		2.56^[a]			
OC(Cn1cncc1F)c1ccc(Oc2ccc(Br)nc2)nc1C(F)(F)F (centres unmarked) [I-155]		1.75^[a]			
OC(Cn1cncc1F)(c1ccc(Br)cc1Cl)C1(F)CC1 (centres unmarked) [I-430]		1.76^[a]			
CC(O)(Cn1cncc1C#N)c1ccc(Oc2ccc(I)cc2)cc1F (centres unmarked) [I-189]		3.48^[a]			
N#Cc1cncn1CC(O)(c1ccc(Cl)nc1Cl)C1(Cl)CC1 (centres unmarked) [I-597]		2.12^[a]			
CC(C)(C)C(O)(C=CCC1CCCCC1)Cn1cncc1C#N (centres unmarked) [I-673]		4.05^[a]			
N#Cc1cncn1CC(O)c1ccc(Oc2c(F)cc(Cl)cc2F)nc1C(F)(F)F (centres unmarked) [I-135]		3.23^[a]			
O=C(Cn1cncc1Br)c1ccc(Oc2ccc(Cl)nc2)nc1Cl [IX-27]	2.13		90 to 100%		90 to 100%
N#Cc1cncn1CC(O)c1ccc(Oc2ccccc2)cc1F (centres unmarked) [I-99]		2.54^[a]			
N#Cc1cncn1CC(O)c1ccc(C(F)(F)F)cc1 (centres unmarked) [I-141]		1.90^[a]			

More lines, main results first:

chromatographic logP [1]	LogP [1]	Compound	pest or weed control at 500 ppm (Septoria tritici)	pest or weed control at 500 ppm (Puccinia recondita)	pest or weed control at 500 ppm (Sphaerotheca fuliginea)
2.62		N#Cc1cncn1CC(=O)c1cnc(Oc2ccc(Cl)nc2)cc1C(F)(F)F [IX-141]	90 to 100%		90 to 100%
3.14		N#Cc1cncn1CC(=O)c1ccc(Oc2ccc(Cl)cc2F)nc1C(F)(F)F [IX-128]	90 to 100%	70 to 79%	90 to 100%
1.94		O=C(Cn1cncc1Br)c1ccc(Cl)cc1Cl [IX-20]	90 to 100%		90 to 100%
2.12		N#Cc1cncn1CC(=O)c1ccc(OC(F)(F)F)cc1 [IX-116]	80 to 89%		80 to 89%
1.58		N#Cc1cncn1CC(=O)c1ccc(F)cc1 [IX-100, 3-[2-(4-fluorophenyl)-2-oxo-ethyl]imidazole-4-carbonitrile]	90 to 100%		90 to 100%
2.07		N#Cc1cncn1CC(=O)c1ccccc1C(F)(F)F [IX-138]			90 to 100%
2.7		N#Cc1cncn1CC(=O)c1ccc(Oc2ccc(Br)nc2)cc1Cl [IX-76]	90 to 100%		
3.01		N#Cc1cncn1CC(=O)c1ccc(Oc2ccc(Cl)cn2)cc1C(F)(F)F [IX-71]	90 to 100%	90 to 100%	90 to 100%
1.65		N#Cc1cncn1CC(=O)c1ccccc1F [IX-113]	70 to 79%		
2.32		N#Cc1ccc(Oc2ccc(C(=O)Cn3cncc3Cl)c(Cl)c2)cc1 [IX-12]	90 to 100%		90 to 100%
1.94		O=C(Cn1cncc1Cl)c1ccc(Cl)cc1Cl [IX-19]	90 to 100%		90 to 100%
1.99		N#Cc1cncn1CC(=O)c1ccc(C(F)(F)F)cc1 [IX-117]	90 to 100%		
1.81		N#Cc1cncn1CC(=O)c1ccccc1Cl [IX-126]	80 to 89%		70 to 79%
2.55		N#Cc1cncn1CC(=O)c1ccc(Oc2ccc(Cl)nc2)nc1C(F)(F)F [IX-140]	90 to 100%		90 to 100%
1.79		N#Cc1cncn1CC(=O)c1ccccc1Br [IX-127]	90 to 100%		
